Tested on: microglia isolated from adult mouse brain
Experiment: inflammatory gene expression in microglia isolated from adult brain of LPS-treated mice
Assay type: in vivo
Details: 2-3 mo C57B6 male mice, LPS 5 mg/kg i.p., AE1-329 0.3 mg/kg subcutaneously, microglia harvested at 6 hours
Procedure: qPCR was carried out as previously described (Liang et al., 2008). Briefly, total RNA was isolated using Trizol reagent (Invitrogen, Carlsbad, Calif.), treated with DNAse (Invitrogen), and the reaction was terminated by heating at 65° C. for 10 minutes. First strand cDNA synthesis was performed with 1.5 μg of total RNA, 4 units of Omniscript enzyme (Qiagen, Valencia, Calif.) and 0.25 μg of random primer in a reaction volume of 20 μl at 37° C. for 1 hour. Reverse transcribed cDNA was diluted 1:20 in RNAse free ddH2O for subsequent RT-PCR. The mRNA level for each target gene was quantified by SYBR Green-based qPCR using the QuantiTect SYBR Green PCR kit (Qiagen). Melting curve analysis confirmed the specificity of each reaction. […] Quantification was performed using the standard curve method. […]
Adult microglial cell isolation was carried according to the methods of Cardona et al., 2006, and cells were processed for RNA isolation or flow cytometry. […] Purity of the microglial preparation was determined in separate experiments by labeling ˜10^5 cells/ml with phycoerythrin (PE)-conjugated hamster anti-mouse CD11b or IgG isotype control (1:100; eBioscience, San Diego, Calif.) for 30 minutes on ice. […] Flow cytometry was performed on a LSR II (BD Biosciences), and data analyzed with FlowJo 7.2.2 software. […]

For `COCc1ccccc1CC[C@H](O)/C=C/[C@H]1[C@H](O)CC(=O)[C@@H]1SCCCSCC(=O)O` [AE1-329], the “LPS-induced microglial COX-2, iNOS, IL-6, TNF-α and gp91phox expression” value was “significantly reduced”.
